Source: patent US20120094384A1, “USE OF COMPOUNDS FOR DIFFERENTIATION OF CELLS” (priority 2009, published 2012)

System: mouse embryonic stem cells (mESC's)
Assay: Mouse embryonic stem cell differentiation assessed by GeneChip array (Affymetrix GeneChip Mouse Exon 1.0ST)
Type: cell-based
Conditions: 0.5 μM, 96 hours, spontaneously differentiating mESC's
Protocol: Undifferentiated mouse embryonic stem cells (mESC's) were seeded at a density of 1.3×10^6 cells on 6 cm uncoated bacterial grade dishes. Spontaneous differentiation was initiated by removal of LIF from the new incubation medium, which consisted of 2% serum KO DMEM+/−AO-1-530 (0.5 μM). AO-1-530 is the same compound used in Examples 1 and 2. There were three treated and three control replicates.
Cells were incubated on a shaking platform at 37° C. for 24 hours at which time the plating media was removed and fresh medium, or AO-1-530 treated medium added as appropriate. This was repeated at 48 hours and 72 hours.
The partially-differentiated cells or embryoid bodies (EB's) were harvested at 96 hours, washed with PBS, re-suspended in Trizol and stored at −80° C. awaiting RNA extraction. The cells were subsequently thawed and RNA extracted using a standard Trizol isolation procedure with an additional clean-up performed using a Qiagen RNeasy Mini kit and DNase digestion as per the manufacturer's instructions. cRNA was prepared from the tRNA, then hybridised to the Affymetrix GeneChip Mouse Exon 1.0ST array, washed, stained then scanned.
P-value cut-off: 0.05 P-value computation: Asymptotic Multiple testing correction: Benjamini-Hochberg

## CCCCCCCCCCc1ccc2c(=O)c(O)c(-c3cc(O)c(O)c(O)c3)oc2c1 [AO1530]
  Neurod1 and Fgf4 genes relative to the control cells: increase
  remaining 6 genes (Fgf10, Bry, Podxl, Map4k1, Pak1, Eomes) relative to the control cells: decreased
T-test, Benjamini-Hochberg
  number of genes with significantly altered (P<0.05) expression compared with the controls: 315 genes
[Control] (normalized) 0.17034023
  [Drug] (normalized) Pak1: −0.2141
[Control] (normalized) 0.32084307
  [Drug] (normalized) Bry: −0.4595
[Control] (normalized) 0.32956442
  [Drug] (normalized) Podxl: −0.3278
[Control] (normalized) 0.44043383
  [Drug] (normalized) Eomes: −0.5036
[Control] (normalized) 0.50325745
  [Drug] (normalized) Fgf10: −0.5713
[Control] (normalized) −0.1732769
  [Drug] (normalized) Map4k1: 0.1637
[Control] (normalized) −0.46519312
  [Drug] (normalized) Neurod1: 0.4739
[Control] (normalized) −0.48913416
  [Drug] (normalized) Fgf4: 0.3787
[Control](raw) 394.5062
  [Drug](raw) Fgf10: 187.7
[Control](raw) 420.62076
  [Drug](raw) Neurod1: 806
[Control](raw) 814.98
  [Drug](raw) Map4k1: 1029.3136
[Control](raw) 2057.381
  [Drug](raw) Eomes: 1071.638
[Control](raw) 2079.3152
  [Drug](raw) Fgf4: 3787.6875
[Control](raw) 2240.5337
  [Drug](raw) Pak1: 1717.2704
[Control](raw) 3411.1348
  [Drug](raw) Podxl: 2162.7986
[Control](raw) 8229.497
  [Drug](raw) Bry: 4804.9707
